# Laboratory results as given in patent publication US12564580B2, “Mitochondria-targeted isoketal/isolevuglandin scavengers and uses thereof” (Vanderbilt University, priority 2020, dated 2026).
# Tests used:
# [1] = tested on: C57Bl/6J mice, Ang II-induced hypertension; assay: Blood pressure in angiotensin II model of hypertension (tail-cuff and telemetry); type: in vivo, mouse
# Excerpt: (§1) FIGS. 10A-D show the effect of mito2HOBA on angiotensin II-induced hypertension and accumulation of mitochondrial isoLGs protein adducts. (A) Blood pressure tail-cuff measurements in male Sham or angiotensin II-infused mice supplied with mito2HOBA in drinking water (0.1 g/L) or equimolar amount of untargeted analog 2HOBA (0.17 mmol/L). (B) Telemetry studies of blood pressure in angiotensin II-infused mice supplied with mito2HOBA or plain water as a vehicle. (C) Representative LC/MS/MS chromatograms of isoLG-Lysyl-Lactam adduct; (D) isoLG-Lys-Lactam levels in kidney mitochondria isolated from Sham or angiotensin II-infused mice supplied with mito2HOBA. Results are mean±SEM. *P<0.01 vs Sham, **P<0.01 vs Ang II (n=8).
# Hypertension was induced by angiotensin II ([…]) as described previously. To test the therapeutic potential of scavenging of mitochondrial isoLGs, wild-type C57B1/6J male and female mice (Jackson Labs) received saline or angiotensin II minipump placement, and provided with the plain water (vehicle) or mito2HOBA in the drinking water (0.1 g/liter). Blood pressure was monitored by the telemetry and tail-cuff measurements as previously described. The Vanderbilt Institutional Animal Care and Use Committee approved the procedures (Protocol M1700207). Simple randomization was used to select animals for sham, angiotensin II or mito2HOBA groups for equal chance of being allocated to treatment groups.
# To test a functional role of mitochondrial isoLGs in hypertension, we used an Ang II model of hypertension, and monitored blood pressure by tail-cuff (FIG. 10A) and telemetry (FIG. 10B). […] Infusion of wild-type C57B1/6J mice with Ang II (0.7 mg/kg/day) increased systolic blood pressure to 162 mm Hg.
# [2] = tested on: mitochondrial isoLG-Lysyl-Lactam protein adducts; assay: isoLG-Lysyl-Lactam adducts in kidney mitochondria by LC/MS/MS; type: in vivo, mouse; conditions: Ang II-infused mice, mito2HOBA 0.1 g/L
# Excerpt: as §1
# C57B1/6J mice were sacrificed by carbon dioxide and kidneys removed, cleaned from fat tissue and placed in the ice-slurry cold isolation medium. […] Mitochondrial protein concentration was measured by Bradford method.
# IsoLG-Lysyl-Lactam adducts were measured in mitochondria isolated from the kidneys of sham or angiotensin II-infused mice using Mass Spectrometry. […] A [^13C6] internal standard was added and the isoLG-lysyl adducts were purified by solid phase extraction and HPLC before being quantified by Liquid Chromatography-tandem Mass Spectrometry assay (LC/ESI/MS/MS) using isotopic dilution as described previously.
# [3] = tested on: human aortic endothelial cells (HAEC); assay: Cardiolipin oxidation in human aortic endothelial cells stimulated with angiotensin II plus TNFα (LC/MS); type: cell-based; conditions: 50 nM
# Procedure: FIGS. 9A and B show the effect of mito2HOBA on mitochondrial superoxide and cardiolipin oxidation in human aortic endothelial cells induced by angiotensin II plus TNFα. (A) Mitochondrial superoxide was measured by HPLC analysis of mitoSOX-superoxide specific product, mito-2-hydroxyethidium (Mito-2OH-Et+). […] (B) Cardiolipin oxidation induced by Angiotensin II+TNFα measured my LC/MS. […] Data are mean±SEM. *P<0.01 vs Control, **P<0.01 vs Angiotensin II+TNFα (n=4).
# Cardiolipin oxidation in human aortic endothelial cells was measured by Liquid Chromatography-Mass Spectrometry (LC/MS) as described previously.^44 The extracted lipid fraction was separated online by UPLC using a Waters Acquity UPLC system (Waters Corp., Milford, MA). Mass Spectrometry analysis was performed on a Thermo Quantum Ultra triple quadrupole mass spectrometer (Thermo Scientific Inc., San Jose, CA, USA).
# Human aortic endothelial cells (HAEC) were purchased from Lonza (Chicago, IL) and cultured in EGM-2 medium supplemented with 2% FBS but without antibiotics. On the day before the study, the FBS concentration was reduced to 1%.
# [4] = Reaction with the IsoLG analog 4-oxopentanal; type: physicochemical; conditions: % of 2HOBA itself
# Excerpt: In order to confirm the IsoLG scavenging properties of mito2HOBA, the present inventors studied its reaction with the IsoLG analog 4-oxopentanal as the present inventors described previously. Mito2HOBA was highly reactive with 4-oxopentanal with a reaction rate constant that was about 50% of 2HOBA itself (Supplemental FIG. 1S). […] The overall rate of IsoLG scavenging in physiological conditions depends both on the rate constant and the local concentration of the scavenger (V=k*[mito2HOBA]*[IsoLG]). […] This will result in low level of mito2HOBA in cytoplasm but high mitochondrial accumulation leading to specific scavenging of IsoLG in mitochondria (FIG. 3).
compound,measurement,setting,value
NCc1ccc(OCCCC[P+](c2ccccc2)(c2ccccc2)c2ccccc2)cc1O [mito2HOBA],systolic blood pressure,"[1]; Ang II 0.7 mg/kg/day, mito2HOBA 0.1 g/L drinking water, tail-cuff and telemetry (Ang II alone 162)",140 mm Hg
same,blood pressure in control mice,"[1]; mito2HOBA alone, no Ang II",did not affect
same,isoLG-Lysyl-Lactam adducts formation in kidney mitochondria,[2],abolished
same,cardiolipin oxidation,[3],inhibited
same,reaction rate constant with 4-oxopentanal relative to 2HOBA,[4],about 50%
